Values joined by “and” are separate entries in the source; they are usually repeats but may differ in a detail not shown here. Equal entries are not always repeated.
Key:
[1] = tested on: Salmonella typhimurium TA98; assay: Bacterial reverse mutation assay, TA98; settings: TA98, S9+, 1.0 μg/plate, positive control
[2] = tested on: Salmonella typhimurium TA1535; assay: Bacterial reverse mutation assay, TA1535; settings: TA1535, S9+, 3.0 μg/plate, positive control
[3] = tested on: Escherichia coli WP2uvrA (pKM101); assay: Bacterial reverse mutation assay, WP2uvrA (pKM101); settings: S9+, 2.0 μg/plate, positive control
[4] = tested on: Salmonella typhimurium TA1537; assay: Bacterial reverse mutation assay, TA1537; settings: TA1537, S9+, 3.0 μg/plate, positive control
[5] = tested on: Salmonella typhimurium TA100; assay: Bacterial reverse mutation assay, TA100; settings: TA100, S9+, 2.0 μg/plate, positive control

SMILES: Nc1ccc2cc3ccccc3cc2c1 [2-Aminoanthracene (2-AA), 2-Aminoanthracene]
- Mean revertant colony count [1]: 362 and 440
- Mean revertant colony count [2]: 101
- Mean revertant colony count [3]: 462 and 545
- Mean revertant colony count [4]: 129 and 220
- Mean revertant colony count [5]: 592 and 838
